From patent EP4603105A1, “PHARMACEUTICAL COMPOSITION CONTAINING CYCLIC COMPOUND HAVING SELECTIVE KRAS INHIBITORY EFFECT AGAINST HRAS AND NRAS” (CHUGAI SEIYAKU KABUSHIKI KAISHA, priority 2022, dated 2024)
pIC50, pKd: −log10 of the molar value. *1 amine or outer side, *2 acyl side, *3 side chain or, on linkers, in order; H or OH if unused. Where a SMILES comes first, the peptide text is derived from it. Bridges are numbered along the chain shown (N, C = ends). [ ]: non-standard residue; d: D form. The star is where a group is joined. hPhe(3,5-F2-4-CF3) = N[C@@H](CCc1cc(F)c(C(F)(F)F)c(F)c1)C(=O)O; hPhe(3-Cl-4-CF3) = N[C@@H](CCc1ccc(C(F)(F)F)c(Cl)c1)C(=O)O; NPrPhe(4-CF3) = CCCN[C@@H](Cc1ccc(C(F)(F)F)cc1)C(=O)O; X1 = CCCCN([C@@H](Cc1ccc(C)cc1)C(=O)[*:2])[*:1]; Pro(4-spirocPr) = O=C(O)[C@@H]1CC2(CC2)CN1; NMeGly(cPent) = CN[C@H](C(=O)O)C1CCCC1; Nva(3-Et) = CCC(CC)[C@H](N)C(=O)O; Hyp = O=C(O)[C@@H]1C[C@@H](O)CN1; NMeD = CN[C@@H](CC(=O)O)C(=O)O; NMeL = CN[C@@H](CC(C)C)C(=O)O; Morpholide = C1CN(*)CCO1; NMeA = CN[C@@H](C)C(=O)O; Ac5c = NC1(C(=O)O)CCCC1; Aze = O=C(O)[C@@H]1CCN1; Sar = CNCC(=O)O

Columns and labels:
[1] = target: GDP-bound KRAS wild-type protein (Homo sapiens, UniProt P01116); assay: Binding to KRAS by surface plasmon resonance (SPR), dissociation constant KD
Description: Surface plasmon resonance was used to analyze the binding affinity of compounds for KRAS, NRAS, and HRAS. The apparatus used was Biacore 8K, 8K+, or T200 (GE Healthcare), and the running buffer used was HBS (10 mM HEPES-NaOH, 150 mM NaCl, pH 7.4) containing 1 mM DTT, 10 mM MgCl2, 0.01% Tween 20, 10 µM GDP, and 4% DMSO.
Biotinylated Avi-tag fusion KRAS, NRAS, and HRAS proteins were expressed in E. coli BL21 (DE3) strains, and after cells were homogenized, they were purified using Streptavidin Mutein Matrix and Superdex 75. After purification, GDP-loaded KRAS, NRAS, and HRAS proteins were immobilized on the surface of Sensor Chip CAP (Cytiva) coated with Biotin CAPture Reagent in an immobilization amount of about 100 to 300 RU. Binding of each compound was evaluated by the Single Cycle Kinetics method, and a running buffer or a compound solution was added to the RAS protein non-immobilized surface and the immobilized surface to obtain a binding response. The flow rate was set to 100 µL/min, and in the compound-adding cycle, compound solutions having different concentrations were intermittently added for 75 seconds each, starting from a low concentration. […] In the blank cycle, a running buffer was intermittently added and not the compound solution. The Biotin CAPture Reagent and RAS proteins were immobilized for each cycle, and at the end of each cycle, the sensor chip was regenerated by the regeneration solution appended to the Biotin CAPture Kit (Cytiva). Measurement was carried out at 30°C.
The resulting sensorgram was subjected to curve fitting based on a 1:1 binding model on Biacore Insight Evaluation Software or T200 Evaluation Software, and thereby the dissociation constant KD of each compound with respect to KRAS, NRAS, and HRAS was determined. […] Blank indicates a compound from which the KD value with respect to NRAS or HRAS was not obtained.

[2] = system: human lung cancer strain NCI-H441; type: cell-based
How it was run: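 Readout: […] after the ATP-based reagent. Compound: serial dilutions in dimethyl sulfoxide.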

[3] = target: HRAS wild-type protein (Homo sapiens, UniProt P01112); assay: Binding to HRAS by surface plasmon resonance (SPR), KD and KD ratio to KRAS
How it was run: (§1)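 Affinity is measured by surface plasmon resonance at 30°C against captured, GDP-loaded RAS carrying a biotinylated Avi tag. Compounds are titrated by single-cycle kinetics, and KD comes from a 1:1 fit.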

[4] = target: GDP-bound NRAS wild-type protein (Homo sapiens, UniProt P01111); assay: Binding to NRAS by surface plasmon resonance (SPR), KD and KD ratio to KRAS
How it was run: as §1

[5] = ratio of KD for HRAS wild-type protein to KD for KRAS
[6] = ratio of KD for GDP-bound NRAS wild-type protein to KD for KRAS
[7] = Single Cycle Kinetics, 1:1 binding model
[8] = ratio of the KD value with respect to HRAS wild-type protein to the KD value with respect to KRAS
[9] = ratio of the KD value with respect to GDP-bound NRAS wild-type protein to the KD value with respect to KRAS

Sequence of GDP-bound NRAS wild-type protein (P01111 whole entry): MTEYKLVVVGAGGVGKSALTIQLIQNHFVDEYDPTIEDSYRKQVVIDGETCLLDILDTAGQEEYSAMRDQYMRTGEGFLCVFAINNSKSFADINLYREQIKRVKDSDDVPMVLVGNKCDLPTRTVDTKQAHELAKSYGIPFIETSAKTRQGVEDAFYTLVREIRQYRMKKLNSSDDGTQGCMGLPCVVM
Sequence of HRAS wild-type protein (P01112 whole entry): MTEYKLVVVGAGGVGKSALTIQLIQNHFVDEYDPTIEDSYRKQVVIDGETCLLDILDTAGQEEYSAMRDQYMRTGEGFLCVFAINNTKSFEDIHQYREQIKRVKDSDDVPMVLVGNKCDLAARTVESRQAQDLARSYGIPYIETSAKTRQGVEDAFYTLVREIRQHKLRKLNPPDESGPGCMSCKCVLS
Sequence of GDP-bound KRAS wild-type protein (P01116 1-188 isoform P01116-2): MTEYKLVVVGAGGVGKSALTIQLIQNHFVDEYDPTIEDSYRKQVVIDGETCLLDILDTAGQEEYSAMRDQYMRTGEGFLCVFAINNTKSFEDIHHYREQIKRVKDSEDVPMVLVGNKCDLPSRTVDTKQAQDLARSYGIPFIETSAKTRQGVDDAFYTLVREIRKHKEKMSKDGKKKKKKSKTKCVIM

pKd ([1]; Single Cycle Kinetics)	pIC50 [2]	SMILES	HRAS /KRAS [3, 5]	NRAS /KRAS [4, 6]	also measured
9.19	7.08	CC[C@H](C)[C@@H]1NC(=O)[C@H](Cc2cccc(F)c2)N(C)C(=O)C[C@@H](C(=O)N2CCOCC2)N(C)C(=O)[C@H](C2CCCC2)N(C)C(=O)C2(CCCC2)NC(=O)[C@@H]2CCCN2C(=O)[C@H](CCc2ccc(C(F)(F)F)c(Cl)c2)NC(=O)CN(C)C(=O)[C@H](Cc2ccc(F)cc2)N2CCCCC[C@@H](C2=O)N(C)C(=O)CN(C)C1=O [PP0962]	B (a compound having 3 or more and less than 10 is denoted as B)	B (a compound having 3 or more and less than 10 is denoted as B)	–
–	7.30	CCO[C@@H]1C[C@H]2C(=O)NC3(CC(C)(C)C3)C(=O)N(C)[C@@H](C3CCCC3)C(=O)N(C)[C@H](C(=O)N(C)CC)CC(=O)N(C)[C@@H]([C@H](C)OC)C(=O)N[C@@H]([C@@H](C)CC)C(=O)N(C3CC3)CC(=O)N(C)[C@H]3C/C=C\CCN(C3=O)[C@@H](Cc3ccc(C)cc3)C(=O)N(C)CC(=O)N[C@@H](CCc3ccc(C(F)(F)F)c(Cl)c3)C(=O)N2C1 [PP3159]	A (a compound having 10 or more and less than 20 is denoted as A)	A (a compound having 10 or more and less than 20 is denoted as A)	pKd ([1]; 1:1 binding model): 9.22
–	7.25	CCCN1C(=O)CN(C)C(=O)[C@@H]2CCN2C(=O)[C@H]([C@@H](C)CC)NC(=O)[C@H](CC(C)C)N(C)C(=O)C[C@@H](C(=O)N2CCOCC2)N(C)C(=O)[C@H](C2CCCC2)N(C)C(=O)C2(CCCC2)NC(=O)[C@@H]2CC3(CC3)CN2C(=O)[C@H](CCc2ccc(C(F)(F)F)c(Cl)c2)NC(=O)CN(C)C(=O)[C@@H]1Cc1ccc(C(F)(F)F)cc1 [PP0308] ([NMeL]I[Aze][Sar][NPrPhe(4-CF3)][Sar][hPhe(3-Cl-4-CF3)][Pro(4-spirocPr)][Ac5c][NMeGly(cPent)][NMeD]-Morpholide; lactam N-11)	B (a compound having 3 or more and less than 10 is denoted as B)	B (a compound having 3 or more and less than 10 is denoted as B)	pKd ([1]; 1:1 binding model): 8.96
–	8.27	CC[C@H](C)[C@@H]1NC(=O)[C@H](CC(C)C)N(C)C(=O)C[C@@H](C(=O)N2CCOCC2)N(C)C(=O)[C@H](C2CCCC2)N(C)C(=O)C2(CCCC2)NC(=O)[C@@H]2CCCN2C(=O)[C@H](CCc2ccc(C(F)(F)F)c(Cl)c2)NC(=O)CN(C)C(=O)[C@H](Cc2ccc(C)cc2)N2CC=CC[C@@H](C2=O)N(C)C(=O)CN(C)C1=O [PP0460]	–	–	pKd [1, 7]: 9.85; HRAS /KRAS [3, 8]: C (A compound having a KD ratio of 0.1 or more and less than 3 is denoted as C); NRAS /KRAS [4, 9]: C (A compound having a KD ratio of 0.1 or more and less than 3 is denoted as C)
8.52	6.49	CCCN1C(=O)CN(C)C(=O)[C@@H]2CCN2C(=O)[C@H](C(CC)CC)NC(=O)[C@H](CC(C)C)N(C)C(=O)C[C@@H](C(=O)N2CCOCC2)N(C)C(=O)[C@H](C2CCCC2)N(C)C(=O)C2(CCCC2)NC(=O)[C@@H]2CCCN2C(=O)[C@H](CCc2cc(F)c(C(F)(F)F)c(F)c2)NC(=O)CN(C)C(=O)[C@@H]1Cc1ccc(C(F)(F)F)cc1 [PP0785] ([NMeL][Nva(3-Et)][Aze][Sar][NPrPhe(4-CF3)][Sar][hPhe(3,5-F2-4-CF3)]P[Ac5c][NMeGly(cPent)][NMeD]-Morpholide; lactam N-11)	B (a compound having 3 or more and less than 10 is denoted as B)	B (a compound having 3 or more and less than 10 is denoted as B)	–
–	–	CCO[C@@H]1C[C@H]2C(=O)NC3(CCC3)C(=O)N(C)[C@@H](C(CC)CC)C(=O)N(C)[C@H](C(=O)N(C)C)CC(=O)N(C)[C@@H](C)C(=O)N[C@@H]([C@@H](C)CC)C(=O)N(C)CC(=O)N(C)[C@H]3C/C=C\CCN(C3=O)[C@@H](Cc3ccc(C(F)(F)F)cc3)C(=O)N(C)CC(=O)N[C@@H](CCc3ccc(C(F)(F)F)c(OC)c3)C(=O)N2C1 [PP1206]	–	–	pKd [1, 7]: 9.77; HRAS /KRAS ([3]; ratio of KD with respect to HRAS wild-type protein to KD with respect to KRAS): A (a compound having 10 or more and less than 20 is denoted as A); NRAS /KRAS ([4]; ratio of KD with respect to GDP-bound NRAS wild-type protein to KD with respect to KRAS): AA (a compound having 20 or more is denoted as AA)
8.05	5.80	CC[C@H](C)[C@@H]1NC(=O)[C@H](CC(C)C)N(C)C(=O)C[C@@H](C(=O)N(C)C)N(CCC2CCCC2)C(=O)[C@H](C2CCCC2)N(C)C(=O)C2(CCCC2)NC(=O)[C@@H]2CCCN2C(=O)[C@H](CCc2ccc(C(F)(F)F)c(Cl)c2)NC(=O)CN(C)C(=O)[C@H](Cc2ccc(F)cc2)N2CCCCC[C@@H](C2=O)N(C)C(=O)CN(C)C1=O [PP0975]	–	–	–
8.77	5.59	CC[C@H](C)[C@@H]1NC(=O)[C@H](CC(C)C)N(C)C(=O)C[C@@H](C(=O)N2CCOCC2)N(C)C(=O)[C@H](C2CCCC2)N(C)C(=O)C2(CCC2)NC(=O)[C@@H]2[C@@H](O)CCN2C(=O)[C@H](CCc2cc(F)c(C(F)(F)F)c(F)c2)NC(=O)CN(C)C(=O)[C@H](Cc2ccc(C(F)(F)F)cc2)N2CCCCC[C@@H](C2=O)N(C)C(=O)CN(C)C1=O [PP0872]	–	–	–
9.40	6.36	CC[C@H](C)[C@@H]1NC(=O)[C@H](CC(C)C)N(C)C(=O)C[C@@H](C(=O)N2CCOCC2)N(C)C(=O)[C@H](C2CCCC2)N(C)C(=O)C2(CCC2)NC(=O)[C@@H]2C[C@@H](O)CN2C(=O)[C@H](CCc2cc(F)c(C(F)(F)F)c(F)c2)NC(=O)CN(C)C(=O)[C@H](Cc2ccc(C(F)(F)F)cc2)N2CCCCC[C@@H](C2=O)N(C)C(=O)CN(C)C1=O [PP0871]	–	–	–
–	8.46	CCCCN1C(=O)[C@@H]2CCN2C(=O)[C@H](C)N(C)C(=O)[C@H]([C@@H](C)CC)NC(=O)[C@H](CC(C)C)N(C)C(=O)C[C@@H](C(=O)N2CCOCC2)N(C)C(=O)[C@H](C2CCCC2)N(C)C(=O)C2(CCCC2)NC(=O)[C@@H]2CCCN2C(=O)[C@H](CCc2ccc(C(F)(F)F)c(Cl)c2)NC(=O)CN(C)C(=O)[C@@H]1Cc1ccc(C)cc1 [PP0055] ([NMeL]I[NMeA][Aze][X1][Sar][hPhe(3-Cl-4-CF3)]P[Ac5c][NMeGly(cPent)][NMeD]-Morpholide; lactam N-11)	–	–	pKd ([1]; 1:1 binding model): 9.57
8.96	6.99	CC[C@H](C)[C@@H]1NC(=O)[C@H](CC(C)C)N(C)C(=O)C[C@@H](C(=O)N2CCOCC2)N(C)C(=O)[C@H](C2CCCC2)N(C)C(=O)C2(CCC2)NC(=O)[C@@H]2[C@@H](OCCC(F)(F)F)CCN2C(=O)[C@H](CCc2cc(F)c(C(F)(F)F)c(F)c2)NC(=O)CN(C)C(=O)[C@H](Cc2ccc(C(F)(F)F)cc2)N2CCCCC[C@@H](C2=O)N(C)C(=O)CN(C)C1=O [PP1008]	–	–	–
8.26	6.43	C=CCCCC[C@H]1C(=O)N[C@@H]([C@@H](C)CC)C(=O)N(C)CC(=O)N(C)[C@H]2CCCCCN(C2=O)[C@@H](Cc2ccc(C(F)(F)F)cc2)C(=O)N(C)CC(=O)N[C@@H](CCc2cc(F)c(C(F)(F)F)c(F)c2)C(=O)N2C[C@H](OCC)C[C@H]2C(=O)N[C@](C)(CC=C)C(=O)N(C)[C@@H](C2CCCC2)C(=O)N(C)[C@H](C(=O)N2CCOCC2)CC(=O)N1C [PP0881]	–	–	–
–	8.24	C#CCN1CC(=O)N(C)[C@H]2C/C=C\CCN(C2=O)[C@@H](Cc2ccc(C)cc2)C(=O)N(C)CC(=O)N[C@@H](CCc2cc(F)c(C(F)(F)F)c(F)c2)C(=O)N2C[C@H](OCC)C[C@H]2C(=O)NC2(CC(C)(C)C2)C(=O)N(C)[C@@H](C2CCCC2)C(=O)N(C)[C@H](C(=O)N(C)C)CC(=O)N(C)[C@@H](CCC)C(=O)N[C@@H]([C@@H](C)CC)C1=O [PP2095]	–	–	HRAS /KRAS [3, 8]: A (a compound having 10 or more and less than 20 is denoted as A); NRAS /KRAS [4, 9]: A (a compound having 10 or more and less than 20 is denoted as A)
–	8.74	CCCN1C(=O)[C@@H]2CCN2C(=O)[C@H](C)N(C)C(=O)[C@H]([C@@H](C)CC)NC(=O)[C@H](CC(C)C)N(C)C(=O)C[C@@H](C(=O)N2CCOCC2)N(C)C(=O)[C@H](C2CCCC2)N(C)C(=O)C2(CCCC2)NC(=O)[C@@H]2C[C@@H](OCC)CN2C(=O)[C@H](CCc2ccc(C(F)(F)F)c(Cl)c2)NC(=O)CN(C)C(=O)[C@@H]1Cc1ccc(C(F)(F)F)cc1 [PP0228] ([NMeL]I[NMeA][Aze][NPrPhe(4-CF3)][Sar][hPhe(3-Cl-4-CF3)][Hyp](Et)[Ac5c][NMeGly(cPent)][NMeD]-Morpholide; lactam N-11)	B (a compound having 3 or more and less than 10 is denoted as B)	C (A compound having a KD ratio of 0.1 or more and less than 3 is denoted as C)	–
